Laboratory results: PubChem BioAssay AID330 (DTP/NCI, 2004)
Where “and” joins values, the source holds several entries; their conditions need not be identical. Equal values may be shown once. Toxic doses and inconclusive results are not listed.

System: P388 leukemia ip, CD2F1 mice, survival T/C
Test: NCI In Vivo Anticancer Drug Screen. Data for tumor model P388 Leukemia (intraperitoneal) in CD2F1 (CDF1) mice
Conditions: endpoint: median survival time, higher = longer survival
Method in brief: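 Mice carrying the transplanted tumor received test compound or vehicle. Survival was recorded in each group, and the value is the treated-group measurement divided by that of the vehicle-treated control group.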

For `CC(=O)OC1C2(CC3N4C(=O)C5(CO)SSC4(CC31O)C(=O)N5C)OC(C)C(C)(C)C2=O` (configuration not stated), the T/C (dose: 0.08 mg/kg/injection, schedule: Q01DX009 (ip), vehicle: saline) was 101 % of control, the T/C (dose: 0.15 mg/kg/injection, schedule: Q01DX009 (ip), vehicle: saline) was 108 % of control and the T/C (dose: 0.3 mg/kg/injection, schedule: Q01DX009 (ip), vehicle: saline) was 111 % of control. The T/C (dose: 0.31 mg/kg/injection, schedule: Q01DX009 (ip), vehicle: saline) was 107 % of control, the T/C (dose: 0.6 mg/kg/injection, schedule: Q01DX009 (ip), vehicle: saline) was 111 % of control and the T/C (dose: 0.63 mg/kg/injection, schedule: Q01DX009 (ip), vehicle: saline with Tween-80) was 97 % of control. For the same molecule, the T/C (dose: 0.63 mg/kg/injection, schedule: Q01DX009 (ip), vehicle: saline) was 107 % of control, the T/C (dose: 0.78 mg/kg/injection, schedule: Q01DX009 (oral), vehicle: saline) was 104 % of control and the T/C (dose: 1.2 mg/kg/injection, schedule: Q01DX009 (ip), vehicle: saline) was 99 % of control. For the same molecule, the T/C (dose: 1.25 mg/kg/injection, schedule: Q01DX009 (ip), vehicle: saline) was 103 % of control and 111 % of control, the T/C (dose: 1.56 mg/kg/injection, schedule: Q01DX009 (oral), vehicle: saline) was 105 % of control and the T/C (dose: 3.12 mg/kg/injection, schedule: Q01DX009 (oral), vehicle: saline) was 100 % of control and 101 % of control. For the same molecule, the T/C (dose: 6.25 mg/kg/injection, schedule: Q01DX009 (oral), vehicle: saline) was 95 % of control and the T/C (dose: 12.5 mg/kg/injection, schedule: Q01DX009 (oral), vehicle: saline) was 89 % of control.

With `COc1cccc2c1C(=O)c1c(O)c3c(c(O)c1C2=O)C[C@@](O)(C(=O)CO)C[C@@H]3OC1CC(N(C)C)C(O)C(C)O1` (some centres not stated) the T/C (dose: 0.06 mg/kg/injection, schedule: Q01DX009 (ip), vehicle: water) was 108 % of control, the T/C (dose: 0.13 mg/kg/injection, schedule: Q01DX009 (ip), vehicle: water) was 119 % of control and the T/C (dose: 0.19 mg/kg/injection, schedule: Q04DX003 (ip), vehicle: water) was 104 % of control. For the same molecule, the T/C (dose: 0.25 mg/kg/injection, schedule: Q01DX009 (ip), vehicle: water) was 150 % of control, the T/C (dose: 0.38 mg/kg/injection, schedule: Q04DX003 (ip), vehicle: water) was 100 % of control and the T/C (dose: 0.5 mg/kg/injection, schedule: Q01DX009 (ip), vehicle: water) was 160 % of control and 164 % of control. For the same molecule, the T/C (dose: 0.75 mg/kg/injection, schedule: Q04DX003 (ip), vehicle: water) was 104 % of control, the T/C (dose: 0.86 mg/kg/injection, schedule: Q04DX003 (ip), vehicle: water) was 154 % of control and the T/C (dose: 1.44 mg/kg/injection, schedule: Q04DX003 (ip), vehicle: water) was 163 % of control. For the same molecule, the T/C (dose: 1.5 mg/kg/injection, schedule: Q04DX003 (ip), vehicle: water) was 106 % of control, the T/C (dose: 2.0 mg/kg/injection, schedule: Q01DX009 (ip), vehicle: water) was 101 % of control and the T/C (dose: 2.4 mg/kg/injection, schedule: Q04DX003 (ip), vehicle: water) was 175 % of control. The T/C (dose: 2.5 mg/kg/injection, schedule: Q01DX001 (ip), vehicle: water) was 153 % of control, the T/C (dose: 3.0 mg/kg/injection, schedule: Q04DX003 (ip), vehicle: water) was 113 % of control and the T/C (dose: 4.0 mg/kg/injection, schedule: Q04DX003 (ip), vehicle: water) was 117 % of control. The T/C (dose: 5.0 mg/kg/injection, schedule: Q01DX001 (ip), vehicle: water) was 153 % of control, the T/C (dose: 6.0 mg/kg/injection, schedule: Q04DX003 (ip), vehicle: water) was 123 % of control and the T/C (dose: 6.67 mg/kg/injection, schedule: Q04DX003 (ip), vehicle: water) was 97 % of control.

In the case of `O=[N+]([O-])c1ccc(Cl)nc1`, the T/C (dose: 22.0 mg/kg/injection, schedule: Q01DX009 (ip), vehicle: saline with Tween-80) was 103 % of control, the T/C (dose: 33.0 mg/kg/injection, schedule: Q01DX009 (ip), vehicle: saline with Tween-80) was 97 % of control and the T/C (dose: 50.0 mg/kg/injection, schedule: Q01DX009 (ip), vehicle: saline with Tween-80) was 91 % of control. For the same molecule, the T/C (dose: 75.0 mg/kg/injection, schedule: Q01DX009 (ip), vehicle: saline with Tween-80) was 99 % of control, the T/C (dose: 100.0 mg/kg/injection, schedule: Q04DX003 (ip), vehicle: saline sonified) was 100 % of control and the T/C (dose: 200.0 mg/kg/injection, schedule: Q04DX003 (ip), vehicle: saline sonified) was 95 % of control. The T/C (dose: 400.0 mg/kg/injection, schedule: Q04DX003 (ip), vehicle: saline sonified) was 90 % of control.

For `CC(=O)O[C@H]1[C@@H](C(C)C)CC[C@@]2(C)[C@H](Br)CC[C@@](C)(O)[C@H]12`, the T/C (dose: 20.0 mg/kg/injection, schedule: Q01DX005 (ip), vehicle: other) was 105 % of control, the T/C (dose: 40.0 mg/kg/injection, schedule: Q01DX005 (ip), vehicle: other) was 105 % of control and the T/C (dose: 80.0 mg/kg/injection, schedule: Q01DX005 (ip), vehicle: other) was 105 % of control.
